Laboratory results published in the supplement of paper PMC10307832.

Experiments:
Experiment in all cases: relative viability (nuclei count vs DMSO), 5 days (fraction); higher = more cells survive
QS11 + Pemetrexed = compound: C1CC2=C(C1)C=C(C=C2)OC3=NC(=C4C(=N3)N(C=N4)CC5=CC=C(C=C5)C6=CC=CC=C6)N[C@@H](CC7=CC=CC=C7)CO [QS11] + Nc1nc2[nH]cc(CCc3ccc(C(=O)N[C@@H](CCC(=O)O)C(=O)O)cc3)c2c(=O)[nH]1 [Pemetrexed] (partner 0.2 µM)
Outline: (§1)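 Relative viability was taken as the ratio of nuclei in treated wells to nuclei in vehicle wells. Lung cancer cell lines in 1536-well plates received compounds by pin tool one day after seeding, either one drug alone or a fixed anchor-drug dose plus five library-drug doses (not always all listed) in √10 steps. Nuclei were counted on 4× images after 5 days of treatment, and values are medians of duplicate plates.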

AZ628 + Bortezomib = compound: CC1=C(C=C(C=C1)NC(=O)C2=CC(=CC=C2)C(C)(C)C#N)NC3=CC4=C(C=C3)N=CN(C4=O)C [AZ628] + CC(C)C[C@H](NC(=O)[C@H](Cc1ccccc1)NC(=O)c1cnccn1)B(O)O [Bortezomib] (partner 0.002 µM)
Outline: as §1

AZ628 + Luminespib = compound: CC1=C(C=C(C=C1)NC(=O)C2=CC(=CC=C2)C(C)(C)C#N)NC3=CC4=C(C=C3)N=CN(C4=O)C [AZ628] + CCNC(=O)c1noc(-c2cc(C(C)C)c(O)cc2O)c1-c1ccc(CN2CCOCC2)cc1 [Luminespib] (partner 0.01 µM)
Outline: as §1

[1] = compound: C[As](C)SC[C@H](NC(=O)CC[C@H](N)C(=O)O)C(=O)NCC(=O)O [Darinaparsin] + CCNC(=O)c1noc(-c2cc(C(C)C)c(O)cc2O)c1-c1ccc(CN2CCOCC2)cc1 [Luminespib] (partner 0.01 µM)
Outline: as §1

Row | Cell Line | relative viability (QS11 + Pemetrexed; first compound 0.08 µM) | relative viability (QS11 + Pemetrexed; first compound 0.253 µM) | relative viability (QS11 + Pemetrexed; first compound 0.8 µM) | relative viability (QS11 + Pemetrexed; first compound 2.53 µM) | relative viability (QS11 + Pemetrexed; first compound 8 µM) | relative viability (AZ628 + Bortezomib; first compound 0.08 µM) | relative viability (AZ628 + Bortezomib; first compound 0.253 µM) | relative viability (AZ628 + Bortezomib; first compound 0.8 µM) | relative viability (AZ628 + Bortezomib; first compound 2.53 µM) | relative viability (AZ628 + Bortezomib; first compound 8 µM) | relative viability (AZ628 + Luminespib; first compound 0.08 µM) | relative viability (AZ628 + Luminespib; first compound 0.253 µM) | relative viability (AZ628 + Luminespib; first compound 0.8 µM) | relative viability (AZ628 + Luminespib; first compound 2.53 µM) | relative viability (AZ628 + Luminespib; first compound 8 µM) | relative viability ([1]; first compound 0.08 µM) | relative viability ([1]; first compound 0.8 µM) | relative viability ([1]; first compound 2.53 µM) | relative viability ([1]; first compound 8 µM)
1 | HOP-62 | 0.414 | 0.371 | 0.276 | 0.23 | 0.283 | 0.814 | 0.832 | 1.12 | 0.975 | 0.805 | 0.977 | 0.865 | 0.759 | 0.826 | 0.475 | 1.1 | 0.811 | 0.793 | 1.09
2 | LC-2-ad | 0.273 | 0.27 | 0.27 | 0.294 | 0.26 | 1.06 | 0.926 | 0.972 | 0.972 | 0.751 | 1.1 | 1.08 | 0.458 | 1.13 | 0.926 | 1.11 | 1.02 | 0.797 | 0.734
3 | EPLC-272H | 0.306 | 0.366 | 0.344 | 0.313 | 0.315 | 0.87 | 0.803 | 0.797 | 0.525 | 0.877 | 0.252 | 0.2 | 0.527 | 0.171 | 0.235 |  | 0.176 | 0.328 | 0.191
4 | SW 900 | 0.384 | 0.456 | 0.465 | 0.503 | 0.514 |  |  |  |  |  | 0.18 | 0.188 | 0.156 | 0.152 | 0.176 | 0.169 | 0.169 | 0.17 | 0.166
5 | EBC-1 |  |  |  |  |  | 0.636 | 0.605 | 0.642 | 0.685 | 0.472 |  |  |  |  |  |  |  |  | 
6 | HCC-44 | 0.72 | 0.581 | 0.416 | 0.675 | 0.659 | 0.904 | 0.915 | 1.09 | 1.01 | 0.758 | 1.29 | 1.08 | 1.13 | 0.945 | 0.767 | 1.47 | 1.12 | 0.954 | 0.804
7 | NCI-H441 | 0.252 | 0.275 | 0.233 | 0.277 | 0.282 | 0.733 | 0.47 | 0.973 | 0.454 | 0.441 | 0.33 | 0.342 | 0.345 | 0.469 | 0.241 | 0.488 | 0.321 | 0.364 | 0.245
8 | NCI-H1299 |  |  |  |  |  | 1.07 | 1.13 | 1.19 | 1.25 | 1.04 |  |  |  |  |  |  |  |  | 
9 | NCI-H1395 | 0.84 | 0.911 | 1.09 | 0.917 | 1.16 |  |  |  |  |  | 0.701 | 0.763 | 0.688 | 0.808 | 0.686 | 0.681 | 0.708 | 0.553 | 0.593
10 | IA-LM |  |  |  |  |  | 0.931 | 0.689 | 0.54 | 0.551 | 0.165 |  |  |  |  |  |  |  |  | 
11 | Calu-6 |  |  |  |  |  | 1.03 | 0.943 | 0.61 | 0.792 | 0.244 |  |  |  |  |  |  |  |  | 
12 | NCI-H1648 | 0.762 | 0.713 | 0.637 | 0.748 | 0.875 |  |  |  |  |  |  |  |  |  |  |  |  |  | 
13 | NCI-H1623 |  |  |  |  |  |  |  |  |  |  | 0.493 | 0.432 | 0.393 | 0.358 | 0.395 | 0.538 | 0.572 | 0.496 | 0.43
14 | NCI-H1703 |  |  |  |  |  | 0.266 | 0.207 | 0.203 | 0.166 | 0.224 |  |  |  |  |  |  |  |  | 
15 | HCC-78 | 0.918 | 0.935 | 0.894 | 0.936 | 0.857 | 0.675 | 0.457 | 0.586 | 0.487 | 0.623 |  |  |  |  |  |  |  |  | 
16 | NCI-H1793 | 0.725 | 0.777 | 1.11 | 1.1 | 0.85 |  |  |  |  |  | 0.182 | 0.19 | 0.202 | 0.132 | 0.173 | 0.238 | 0.162 | 0.161 | 0.175
17 | ABC-1 |  |  |  |  |  | 0.307 | 0.314 | 0.364 | 0.344 | 0.315 | 0.717 | 0.699 | 0.929 | 0.838 | 0.536 | 0.358 | 0.608 | 1.04 | 0.676
18 | NCI-H2170 | 0.271 | 0.288 | 0.243 | 0.274 | 0.287 |  |  |  |  |  | 0.802 | 0.725 | 0.789 | 0.752 | 0.731 | 0.82 | 0.381 | 0.727 | 1.1
19 | HCC-366 | 0.163 | 0.139 |  | 0.175 | 0.136 | 1.04 | 0.894 | 0.957 | 0.999 | 0.681 |  |  |  |  |  |  |  |  | 
20 | NCI-H358 | 0.167 | 0.175 | 0.146 | 0.186 | 0.168 |  |  |  |  |  | 0.285 | 0.279 | 0.273 | 0.311 | 0.167 | 0.416 | 0.332 |  | 0.344
21 | NCI-H727 |  |  |  |  |  | 0.604 | 0.487 | 0.389 | 0.42 | 0.295 | 0.343 | 0.337 | 0.228 | 0.277 | 0.203 | 0.175 | 0.314 | 0.285 | 0.343
22 | NCI-H1944 | 0.535 | 0.632 |  | 0.491 | 0.565 |  |  |  |  |  | 0.651 | 0.66 | 0.553 | 0.546 | 0.575 | 0.84 | 0.705 | 0.686 | 0.676
